Measured values published in patent US20160271188A1, “PROBIOTIC AND PREBIOTIC COMPOSITIONS, AND METHODS OF USE THEREOF FOR TREATMENT OF GASTROINTESTINAL DISORDERS” (Epiva Biosciences, Inc., priority 2014, published 2016).
Entries after “also recorded” stand apart in the source; their conditions may differ.

Assays:
[1] = test system: human peripheral blood mononuclear cells (PBMCs); test: Cytokine release by human PBMCs incubated with commensal bacteria alone or with E. faecalis (Luminex); format: cell-based; details: for overall anti-inflammatory cytokine profile for a Th-1-driven condition such as GVHD: alone and with EPV 8
Procedure: An in vitro system was developed to efficiently test the inflammatory and immunomodulatory properties of different human commensal bacteria on human peripheral blood mononuclear cells (PBMCs). Experiments were carried out with 21 bacterial candidates to profile their anti-inflammatory properties against human PBMCs. The innate properties of bacteria alone on human PBMCs were tested as well as their ability to counteract the pro-inflammatory activity of Enterococcus feacalis.
Human PBMCs were isolated from fresh blood by density-gradient centrifugation using Ficoll (1-4). […] The results are presented in FIGS. 2-5 for all time points. […] The 24 h results are shown as a composite in FIG. 6 and with statistical analysis on individual cytokines in FIGS. 7-10. The results represent the properties of each bacterial species against human PBMCs and their ability to counteract inflammatory stimulation with E. faecalis in vitro.

microbiome of the gut = details: mouse, in vivo
Description: (§1) The trillions of organisms forming the microbiome function as an organ system interconnected throughout the body. The possibility that modification of the microbiome in a given physical location may influence the microbiome at other sites in the body (distal augmentation) was investigated. Seven week old C57Bl/6 female mice were acclimatized for 7 days prior to the start of the study by daily handling and shuffling between cages. All mice were housed at three mice per cage in individually vented cages (Thoren, Hazleton, Pa.). At day 0, baseline fresh fecal pellets, and vaginal lavages with 100 μL of sterile double-distilled water were collected and immediately frozen at −80° C. for microbiome analysis. […] Water alone is not expected to influence the microbiome and acted as a negative control. […] The impact of oral vancomycin is therefore expected to be limited to the gastrointestinal tract such that microbiome changes elsewhere in the body (e.g. vagina) would be attributable to distal augmentation. At day 6, fresh fecal pellets and vaginal lavages with 100 μL of sterile double-distilled water were collected and immediately stored at −80° C. for microbiome analysis.
(§2) Isolation and sequencing of microbial DNA from the stool and vaginal samples was performed by DNA Genotek (Ottawa, ON, Canada). The V3-V4 region of the 16S ribosomal subunit was amplified with custom PCR primers and sequenced on an Illumina MiSeq to a minimum acceptable read depth of 25,000 sequences per sample. […] These OTU's were then assigned a curated taxonomic label based on the seven level SILVA taxonomy.

microbiome of the vagina = details: mouse, in vivo
Description: as §1, §2

[2] = in vivo, po; cited from earlier work
tumors = details: oral administration; Sivan et al., Vetizou et al.; cited from earlier work
[3] = test system: healthy, adult volunteers; details: human, in vivo
Procedure: D-xylose is a carbon source generally preferred by anaerobic bacteria. […] A parallel, double-blind, 5 cohort escalation food safety study was conducted to examine D-xylose in normal human volunteers. The study was a double-blind, single-center, parallel group study designed to evaluate the tolerability and potential microbiome changes induced by ingestion of D-xylose at 5 different amounts in healthy, adult volunteers enrolled at 1 study center in the United States (US).
Subjects were screened for eligibility within 21 days prior to the first planned ingestion of study sweetener on Day 1 (Baseline). […]
Subjects returned to the study center weekly on Days 8, 15, 22, and 28 for ingestion, tolerability, and compliance evaluations. Safety was evaluated on a continual basis through adverse events (AE) monitoring, clinical laboratory measurements, vital sign monitoring, physical examinations, electrocardiograms (ECGs), telephone follow-up, and electronic subject ingestion diaries. Stool was collected pre-ingestion and at pre-specified time points, and post-ingestion samples were evaluated for changes in the gut microbiome compared with Baseline for all subjects. […]
Safety was evaluated on a continual basis through AE monitoring, clinical laboratory measurements, vital sign monitoring, physical examinations, ECGs, telephone follow-up, and electronic subject ingestion diaries. […]

gut microbiome [4] = details: mouse, in vivo
gut microbiome [5] = test: Normal human volunteer study of D-xylose: changes in the gut microbiome (stool V3-V4 16S sequencing); format: in vivo; details: for gut microbiome community composition: over time on study; for alpha diversity of the gut microbiome: regardless of ingestion amount
[6] = Normal human volunteer study of D-xylose: serum and urine pharmacokinetics; format: in vivo
Description: Blood and urine were collected at pre-specified pre- and post-ingestion time points to measure D-xylose levels and to characterize the systemic absorption profiles of D-xylose. Phoenix® WinNonLin®, Version 6.2.1, was used for PK analyses. Serum D-xylose concentrations were summarized by cohort using nominal sample times according to actual amount received using summary statistics (n, coefficient of variation [CV], mean, standard deviation [SD], median, minimum, and maximum). Evidence for the occurrence of steady-state was assessed graphically by comparing the time course of either trough or 2-hour post-ingestion serum concentrations of D-xylose as different levels of D-xylose. Accumulation was assessed by comparing the 2-hour post-first-ingestion serum levels with those observed at Week 2 (Day 15) and Week 4 (Day 28). […] Urine PK parameters for D-xylose levels included Ae(0-t) (cumulative amount of sweetener recovered in urine) and percent sweetener amount excreted over a 5-hour period.

[7] = test system: healthy, adult volunteers; test: Normal human volunteer study of D-xylose: CRP, serum cytokines, T-cell markers; format: in vivo
Description: Blood was collected at pre-specified pre- and post-ingestion time points to evaluate C-reactive protein (CRP), serum cytokines (tumor necrosis factor alpha [TNF-α], interleukin [IL]-2, IL-6, interferon gamma [IFN-γ], and IL-10), and T-cell markers CD3, CD4, CD8, CD25, and FOXP3. Plasma was also stored and may be tested for biomarkers and/or metabolic markers for up to 7 years.
Summary statistics (n, mean, standard deviation, median, minimum, and maximum) were presented for serum concentrations of CRP, flow cytometry T-cell markers (CD3, CD4, CD8, CD25, and FOXP3), and cytokines (TNF-α, IL-2, IL-6, IFN-γ, and IL-10) as per their nominal time points.

## B. luti [EPV3]
[1]
  intrinsic inflammatory activity (induction of pro-inflammatory cytokines) compared to EPV 8: relatively low intrinsic inflammatory activity compared to EPV 8
  overall anti-inflammatory cytokine profile for a Th-1-driven condition such as GVHD: significantly desirable anti-inflammatory profile; also recorded: capable of inducing a desirable anti-inflammatory cytokine profile
[1]; combination with EPV 8
  ability to reduce induction of pro-inflammatory cytokines by EPV 8 (IL-6, MCP-1, IL-12p70, IFNγ): able to reduce the induction of pro-inflammatory cytokines by EPV 8

## CN[C@H](CC(C)C)C(=O)N[C@H]1C(=O)N[C@@H](CC(N)=O)C(=O)N[C@H]2C(=O)N[C@H]3C(=O)N[C@H](C(=O)N[C@H](C(=O)O)c4cc(O)cc(O)c4-c4cc3ccc4O)[C@H](O)c3ccc(c(Cl)c3)Oc3cc2cc(c3O[C@@H]2O[C@H](CO)[C@@H](O)[C@H](O)[C@H]2O[C@H]2C[C@](C)(N)[C@H](O)[C@H](C)O2)Oc2ccc(cc2Cl)[C@H]1O [vancomycin]
Microbiome of the gut
  impact on the microbiome of the gut (PCA at family level): strong impact on the microbiome of the gut
Microbiome of the vagina
  median abundance of bacterial species in vaginal samples at day 6 that were not present at day 0: approximately 0.00002%
Microbiome of the vagina; po
  day 0 to day 6 pattern in vaginal samples (PCA): showed an overall difference
[2]
  absorption from the gut: poorly absorbed from the gut

## Lactobacillus
tumors
  responsiveness to checkpoint inhibitor therapy in cancer: not

## B. wexlerae [EPV5]
[1]
  overall anti-inflammatory cytokine profile for a Th-1-driven condition such as GVHD: suboptimal anti-inflammatory profile for GVHD; also recorded: induces a suboptimal profile for GVHD

## O=C[C@H](O)[C@@H](O)[C@H](O)CO [D-xylose]
[3]
  SAEs, severe AEs, deaths: No SAEs, severe AEs, or subject deaths
[3]; 28 days
  subjects who experienced at least 1 AE: 38.9%
Gut microbiome [4]
  shifts in the gut microbiome: did not cause major shifts in the gut microbiome but showed some differences at the family level
Gut microbiome [5]; over time
  Chao diversity index (community richness): overall decrease in the Chao diversity index over time
  alpha diversity of the gut microbiome: no apparent significant impact on the intra-sample alpha diversity
Gut microbiome [5]
  gut microbiome community composition: no significant changes in community composition
Gut microbiome [5]; listed as xylose
  gut microbiome community composition: exerts subtle changes in the gut microbiome
Gut microbiome [5]; over time, listed as xylose
  alpha diversity of the gut microbiome: no major shifts in the microbiome alpha diversity
[6]; 1 g TID, Days 1, 15 and 28
  ingested amount recovered in urine within 5 hours post-ingestion: approximately 40%
[6]; 1 to 15 g TID
  serum D-xylose concentrations vs ingestion amount: increased linearly with increasing ingestion amounts
[6]; Day 15, 15 mg TID cohort
  accumulation ratio: approximately 1.9 fold
[6]; Day 15, 1 g to 12.5 g TID
  accumulation of serum D-xylose: Little to no accumulation
[6]; Day 28, 15 g TID
  accumulation ratio: 1.68
[7]; 2 g and 15 g cohorts
  serum interferon gamma over time: trend for reduced levels of serum interferon gamma over time
[7]; all cohorts
  subjects with normal serum CRP at Baseline and at least 1 post-ingestion CRP value >2.9 mg/L: 8.3%
[7]; any ingestion amount
  total T-cells and T-cell subsets over time: No consistent or clinically meaningful changes over time
[7]; most data points BLQ, any ingestion amount
  serum cytokines (TNF-α, IL-2, IL-6, IFN-γ, IL-10) over time: did not indicate any consistent or clinically meaningful changes over time

## Bacteroides
tumors
  responsiveness to checkpoint inhibitor therapy in cancer: increases the responsiveness to checkpoint inhibitor therapy

## Bifidobacterium
tumors
  responsiveness to checkpoint inhibitor therapy in cancer: increases the responsiveness to checkpoint inhibitor therapy
